Legend:
Dipeptidyl peptidase 4 = Dipeptidyl peptidase 4 (Homo sapiens, UniProt P27487); experiment: In vitro for inhibition of Dipeptidylpeptidase IV.
Dipeptidyl peptidase 2 = Dipeptidyl peptidase 2 (Homo sapiens, UniProt Q9UHL4); experiment: Compound was tested in vitro for inhibition of Dipeptidylpeptidase II
[1] = molecular target: T1, Prolyl endopeptidase (Homo sapiens) (UniProt P48147); experiment: (§1) Compound was tested in vitro for inhibition of Prolyl endopeptidase; conditions: concentration not given here
T1 sequence (whole entry): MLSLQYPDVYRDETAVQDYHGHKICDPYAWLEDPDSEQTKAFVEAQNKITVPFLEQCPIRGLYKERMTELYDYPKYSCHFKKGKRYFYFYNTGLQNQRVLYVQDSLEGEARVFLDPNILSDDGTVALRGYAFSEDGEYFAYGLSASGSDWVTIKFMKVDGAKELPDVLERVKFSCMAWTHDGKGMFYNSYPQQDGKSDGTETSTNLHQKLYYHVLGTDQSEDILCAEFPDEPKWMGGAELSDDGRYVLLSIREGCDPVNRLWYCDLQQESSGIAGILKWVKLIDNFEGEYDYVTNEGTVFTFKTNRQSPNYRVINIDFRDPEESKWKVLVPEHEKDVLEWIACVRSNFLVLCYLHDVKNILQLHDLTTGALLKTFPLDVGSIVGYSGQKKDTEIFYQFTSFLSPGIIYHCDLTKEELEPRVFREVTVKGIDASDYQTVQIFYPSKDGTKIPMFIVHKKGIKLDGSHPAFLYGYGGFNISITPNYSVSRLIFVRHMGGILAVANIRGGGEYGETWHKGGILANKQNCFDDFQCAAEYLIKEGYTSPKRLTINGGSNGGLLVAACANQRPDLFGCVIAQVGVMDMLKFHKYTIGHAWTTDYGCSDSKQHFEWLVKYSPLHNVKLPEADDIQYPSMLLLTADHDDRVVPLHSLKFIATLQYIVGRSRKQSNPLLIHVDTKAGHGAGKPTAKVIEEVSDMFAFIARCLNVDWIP

Prolyl endopeptidase = molecular target: T2, Prolyl endopeptidase (Homo sapiens, UniProt P48147); experiment: as §1
T2 sequence (P48147 whole entry): T1 sequence (whole entry)

Sequence of Dipeptidyl peptidase 4 (P27487 whole entry): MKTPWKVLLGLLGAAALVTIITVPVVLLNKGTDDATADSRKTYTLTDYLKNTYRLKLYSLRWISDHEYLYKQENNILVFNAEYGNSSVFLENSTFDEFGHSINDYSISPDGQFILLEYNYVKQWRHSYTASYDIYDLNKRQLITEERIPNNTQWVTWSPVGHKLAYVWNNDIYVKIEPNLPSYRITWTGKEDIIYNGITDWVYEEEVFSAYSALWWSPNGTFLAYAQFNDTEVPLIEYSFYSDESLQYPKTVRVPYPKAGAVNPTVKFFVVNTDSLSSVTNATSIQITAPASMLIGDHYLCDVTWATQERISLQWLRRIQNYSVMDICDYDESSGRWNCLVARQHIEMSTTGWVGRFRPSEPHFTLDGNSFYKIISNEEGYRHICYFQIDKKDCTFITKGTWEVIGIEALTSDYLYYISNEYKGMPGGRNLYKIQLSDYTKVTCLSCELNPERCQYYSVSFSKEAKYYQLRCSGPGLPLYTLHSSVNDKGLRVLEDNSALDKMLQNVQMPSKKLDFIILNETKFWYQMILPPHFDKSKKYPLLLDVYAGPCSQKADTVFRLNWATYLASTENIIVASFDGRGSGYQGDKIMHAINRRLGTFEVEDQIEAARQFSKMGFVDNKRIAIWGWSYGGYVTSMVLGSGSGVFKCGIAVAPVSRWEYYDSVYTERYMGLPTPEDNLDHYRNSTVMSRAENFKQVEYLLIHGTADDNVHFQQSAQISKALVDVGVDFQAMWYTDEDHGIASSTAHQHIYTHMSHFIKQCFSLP

Row | SMILES | IC50 (Dipeptidyl peptidase 4) [nM] | further results
1 | O=C([C@@H]1CCN1)N1CCC[C@H]1B(O)O | 250 | –
2 | C[C@H](N)C(=O)N1CCC[C@H]1B(O)O | – | IC50 (Dipeptidyl peptidase 2): 60 nM
3 | N[C@@H](Cc1c[nH]cn1)C(=O)N1CCC[C@H]1B(O)O | 17000 | –
4 | NCC(=O)N1CCC[C@H]1B(O)O | 16000 | –
5 | C[C@@H](O)[C@H](N)C(=O)N1CCC[C@H]1B(O)O | 190 | IC50 (Prolyl endopeptidase): 6000 nM; IC50 (Dipeptidyl peptidase 2): 730 nM
6 | CC(C)(N)C(=O)N1CCC[C@H]1B(O)O | 30000 | –

The next lines start with results.

Row | IC50 (Dipeptidyl peptidase 4) [nM] | SMILES | further results
7 | 44 | CC(C)C[C@H](N)C(=O)N1CCC[C@H]1B(O)O | –
8 | 63 | N[C@H](C(=O)N1CCC[C@H]1B(O)O)c1ccccc1 | –
9 | 25 | CC[C@H](C)[C@H](N)C(=O)N1CCC[C@H]1B(O)O | –
10 | 32 | N[C@@H](Cc1ccc(O)cc1)C(=O)N1CCC[C@H]1B(O)O | –
11 | 95 | NCCCC[C@H](N)C(=O)N1CCC[C@H]1B(O)O | –
12 | 20 | O=C([C@@H]1CCCN1)N1CCC[C@H]1B(O)O | inhibition [1]: 63%; IC50 (Dipeptidyl peptidase 2): 770 nM
13 | 70 | N[C@@H](Cc1ccccc1)C(=O)N1CCC[C@H]1B(O)O | –

From ChEMBL document CHEMBL1129318, “Structure-activity relationships of boronic acid inhibitors of dipeptidyl peptidase IV. 1. Variation of the P2 position of Xaa-boroPro dipeptides” (J Med Chem, 1996)
